# Read-outs that look alike come from different tables or passages of the source.
# What was measured:
# [1] = biological target: T1, ABCG2 (Homo sapiens, UniProt Q9UNQ0); conditions: 1 h, 20 μM
# T1 sequence (Q9UNQ0 1-655): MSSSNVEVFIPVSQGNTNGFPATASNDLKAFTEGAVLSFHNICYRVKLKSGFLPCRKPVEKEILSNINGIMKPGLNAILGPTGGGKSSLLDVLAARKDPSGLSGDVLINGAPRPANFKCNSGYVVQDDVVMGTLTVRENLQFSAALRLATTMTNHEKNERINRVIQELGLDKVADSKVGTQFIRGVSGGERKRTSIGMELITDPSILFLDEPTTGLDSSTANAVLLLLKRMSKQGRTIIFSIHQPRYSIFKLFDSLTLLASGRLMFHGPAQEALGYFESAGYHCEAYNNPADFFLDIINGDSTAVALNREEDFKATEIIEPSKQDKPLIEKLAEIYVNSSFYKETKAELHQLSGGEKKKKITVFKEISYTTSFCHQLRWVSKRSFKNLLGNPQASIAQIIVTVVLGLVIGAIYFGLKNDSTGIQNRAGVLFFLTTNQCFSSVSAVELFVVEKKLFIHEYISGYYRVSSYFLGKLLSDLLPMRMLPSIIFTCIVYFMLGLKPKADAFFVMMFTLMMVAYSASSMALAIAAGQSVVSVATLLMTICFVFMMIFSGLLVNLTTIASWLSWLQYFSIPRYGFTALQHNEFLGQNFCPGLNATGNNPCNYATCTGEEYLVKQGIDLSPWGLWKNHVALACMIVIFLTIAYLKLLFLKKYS
# [2] = biological target: T1, ABCG2; assay: Bioluminescence imaging (BLI) assay in HEK293/ABCG2/fLuc cells
# In short: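 Light output from HEK293/ABCG2/fLuc cells plated at 4×10^4 per well, treated with compounds, imaged every 5 min for ~1 h. Values are signal-to-background ratios versus solvent control at 40 min, indicating ABCG2 inhibition. Dose range 0.001 μM-100 μM with 50 μg/mL D-luciferin for selected compounds.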
# [3] = tested on: ABCG2-overexpressing NCI-H460/MX20 cells
# [4] = tested on: NCI-H460 parent line; assay: MTX survival of parent NCI-H460 cells (XTT); type: cell-based, human; conditions: three days
# [5] = biological target: T1, ABCG2; parameters: expressed in transfected cells; host or cells: HEK293; conditions: reference (23); read-out: IC50, pheophorbide A fluorescent dye uptake assay; cited from earlier work
# [6] = biological target: T1, ABCG2; parameters: expressed in transfected cells; host or cells: HEK293; conditions: read-out: IC50, ability to inhibit ATPase, cited from earlier work
# [7] = biological target: T1, ABCG2; parameters: expressed in transfected cells; host or cells: HEK293; conditions: cited from earlier work
smiles,measurement,setting,value
CCN(CC)CCCC(C)Nc1c2ccc(Cl)cc2nc2ccc(OC)cc12 (stereo not shown) [quinacrine],BODIPY-prazosin assay result,[1],confirmed as an ABCG2 inhibitor
same,"Fold (BLI enhancement), previously unknown compounds","[2]; human, 40 min, 17 μM",10.6 fold
same,"Fold (BLI enhancement, S/B ratio over control)","[2]; human, 40 min, 17 μM",10.6 fold
same,cytotoxicity in the MTX resensitization assay,[3],too cytotoxic to be tested
"O=C1c2c(O)ccc(O)c2C(=O)c2c(NCCNCCO)ccc(NCCNCCO)c21 [MTX, mitoxantrone]",survival of parent cells,[4]; 15 μM MTX alone,< 20%
same,survival of parent cells,[4]; 30 μM MTX alone,~9%
same,survival of H460/MX20 cells,"[3]; 15 μM MTX alone, three days",80%
same,survival of H460/MX20 cells,"[3]; 30 μM MTX alone, three days",~40%
"COc1ccc2c3c([nH]c2c1)[C@H](C=C(C)C)N1C(=O)[C@@H]2CCCN2C(=O)[C@@H]1C3 [FTC, Fumitremorgin C]",IC50,[5],800 nM
same,IC50,[6]; Ozvegy et al. (21),1300 nM
same,IC50,[6]; Ozvegy et al. (22),400 nM
same,IC50,[6]; Robey et al. (13),1000 nM
same,IC50,"[2]; read-out: IC50 as an ABCG2 inhibitor (BLI), same assay, using the 30 min data",6600 nM
same,IC50,"[7]; literature, read-out: IC50 values reported in literature",300 to 1300 nM
same,concentration at which the plateau of the ABCG2-inhibiting effect is reached,[7]; previous reports,10 µM
same,resensitization of H460/MX20 cells to MTX,"[3]; FTC positive control (10 μM), MTX 15 or 30 μM, three days",restored the sensitivity of H460/MX20 cells to MTX and significantly reduced their survival rate
